According to patent publication EP3015165A1, “MATERIAL AND METHOD FOR CAPTURING, DETECTING AND Q[…] SULPHUR COMPOUNDS” (priority 2014, dated 2016):
Values after ≈ are worked out from the molar mass of the structure shown.

Columns and labels:
[1] = [gas]/[liq], grandeur sans dimension; cited from earlier work
[2] = couples H2S/HS^- et CH3SH/CH3S^-; cited from earlier work
[3] = exposition prolongée à forte concentration; cited from earlier work
[4] = Stability of the probe in solution as a function of pH; format: physicochemical; details: milieu basique, from pH 9 the disulphide bridge breaks by itself in a few hours
Description: (§1) Or, en milieu acide, les VSC modèles, à savoir le sulfure d'hydrogène et le méthanethiol, sont peu solubles. La présente étude a donc été menée en solution à pH neutre et, par conséquent sur les formes déprotonées Na2S et (CH3)SNa des deux VSC modèles.

[5] = Kinetics of the probe-target reaction in aqueous solution at neutral pH; details: pH=7,4, target 50 µM and DTNB 5 µM (Figure 2A)
Procedure: as §1
Cette étude a montré que la cinétique de la réaction est suffisamment rapide pour envisager de l'employer dans un xérogel comme réaction de transduction : en moins de 5 min, l'équilibre est atteint (Figure 2A). On peut remarquer également que la réaction de détection du (CH3)SNa est moins rapide que celle de Na2S, avec en outre un moins bon rendement.

[6] = Solubility limit in ethanol; format: physicochemical; details: organic solvent or mixture, éthanol, read-out: limite de solubilité dans l'éthanol
Procedure: Le TMOS et l'éthanol sont mélangés dans un premier temps. Puis le volume désiré de DMPD à 0,5 M dans l'eau est introduit, suivi du volume désiré de FeCl3 à 0,5 M dans 0,267 M HCl. La quantité d'eau restante pour atteindre 1,44 mL suit l'ajout d'HCl provoquant un échauffement du sol qui est agité le temps de refroidir. Pour les formulations fortement dopées en DMPD, il est nécessaire de dissoudre la DMPD dans l'éthanol plutôt que dans l'eau. La limite de solubilité de la DMPD dans l'éthanol est de 21 mM.

[7] = cited from earlier work

S [H2S, sulfure d'hydrogène]
constante de Henry Hcc [1]: 4,09.10^-1
pKa [2]: 7,0
concentration causing paralysie du nerf olfactif [3]: 100 à 150 ppm

O=C(O)c1cc(SSc2ccc([N+](=O)[O-])c(C(=O)O)c2)ccc1[N+](=O)[O-] [DTNB, acide 5,5'-dithiobis(2-nitrobenzoïque)]
stability in solution [4]: n'est pas stable
time to reach equilibrium of the reaction [5]: < 5 min

CN(C)c1ccc(N)cc1 [DMPD, N,N-diméthylparaphénylènediamine]
solubility [6]: 21 mM (≈ 2860 µg/mL)

CS [CH3SH, méthanethiol]
constante de Henry Hcc [1]: 1,23.10^-1
pKa [2]: 12,0
solubilité dans l'eau [7]: 0,48 mol.L^-1
